Reference: patent US5601801A, “Radiolabelled angiotensin converting enzyme inhibitors” (Merck Frosst Canada, Inc., priority 1994, dated 1997)
Read-outs that look alike come from different tables or passages of the source.

Key:
[1] = Biodistribution of ^131 I-3 in CD-1 Mice, normal and blocked with lisinopril; assay type: in vivo; details: for tissue uptake at 0.5 h / tissue uptake at 1.5 h / tissue uptake at 3 h / tissue uptake at 6 h: iv, 1 uCi
Method: It is well known that there are high ACE concentrations in the lungs, kidneys, pre-optic region of the brain and the blood.^4 Localization of the radioactivity in these organs was expected. […] A blocking study was undertaken to differentiate between specific and non-specific binding.
^131 I-3 was prepared as described above and used in this experiment. The experiment was carried out using male CD-1 mice. The mice were fasted 15 hours prior to injection with 1 μCi of ^131 I-3 by bolus injection into the lateral tail vein. At various times following the dosing, selected mice were sacrificed, exsanguinated and dissected. The desired organs were rinsed, blotted, weighed and counted. For the blocking experiment, mice were treated with 10 μg of lisinopril (by bolus injection into the lateral tail vein) 5 minutes before injection of ^131 I-3.
This blocking experiment was an attempt to differentiate between specific and non-specific binding. […] This is illustrated by the dramatic decrease in radioactivity present in these organs in the blocked biodistribution as compared to the normal biodistribution. […] The anomaly of the first time point has yet to be explained.

[2] = Imaging of a New Zealand White Rabbit with ^131 I-3; assay type: in vivo; details: intravenous ear injection
Excerpt: It was thought that this small intestine uptake could be due to a difference in mouse ACE or in its distribution as compared to human ACE. It was decided to carry out this imaging experiment in a rabbit since rabbit ACE is believed to be similar to human ACE. It should be noted that it was rabbit ACE which was used in the IC50 assay.
^131 I-3 prepared as described above was taken up in phosphate buffered saline, the solution was filtered through a 0.2μ Millipore filter, and was introduced into the rabbit by intravenous ear injection followed by imaging of the rabbit.

[3] = mouse, blood, blocked (lisinopril), read-out: Biodistribution, Blood
[4] = mouse, blood, normal (not blocked), read-out: Biodistribution, Blood
[5] = mouse, contents, blocked (lisinopril), read-out: Biodistribution, Contents
[6] = mouse, contents, normal (not blocked), read-out: Biodistribution, Contents
[7] = mouse, fat, blocked (lisinopril), read-out: Biodistribution, Fat
[8] = mouse, fat, normal (not blocked), read-out: Biodistribution, Fat
[9] = mouse, kidney, blocked (lisinopril), read-out: Biodistribution, Kidney
[10] = mouse, kidney, normal (not blocked), read-out: Biodistribution, Kidney
[11] = mouse, large intestine, blocked (lisinopril), read-out: Biodistribution, lg. Intest.
[12] = mouse, large intestine, normal (not blocked), read-out: Biodistribution, lg. Intest.
[13] = mouse, liver, blocked (lisinopril), read-out: Biodistribution, Liver
[14] = mouse, liver, normal (not blocked), read-out: Biodistribution, Liver
[15] = mouse, lung, blocked (lisinopril), read-out: Biodistribution, Lung
[16] = mouse, lung, normal (not blocked), read-out: Biodistribution, Lung
[17] = mouse, muscle, blocked (lisinopril), read-out: Biodistribution, Muscle
[18] = mouse, muscle, normal (not blocked), read-out: Biodistribution, Muscle
[19] = mouse, small intestine, blocked (lisinopril), read-out: Biodistribution, Sm. Intest.
[20] = mouse, small intestine, normal (not blocked), read-out: Biodistribution, Sm. Intest.
[21] = mouse, stomach, blocked (lisinopril), read-out: Biodistribution, Stomach
[22] = mouse, stomach, normal (not blocked), read-out: Biodistribution, Stomach

## O=C(NCCCC[C@H](N[C@@H](CCc1ccccc1)C(=O)O)C(=O)N1CCC[C@H]1C(=O)O)c1cccc([131I])c1 [^131 I-3, Lisinopril N^ε -radioiodobezamide]
[1]; 0.5 hours, pre-injection with lisinopril
  kidney uptake, blocked vs normal: slight increase (or no change)
[1]; blocking experiment
  nature of uptake in kidney, lung and small intestine: due to specific binding
[1]; early time points
  uptake in kidneys and lungs: uptake in the kidneys and lungs at early time points
[1]; mouse, blood, 0.5 hours, blocked (lisinopril), read-out: Biodistribution, Blood
  tissue uptake at 0.5 h: 6 %ID/g
[1]; mouse, blood, 0.5 hours, normal (not blocked), read-out: Biodistribution, Blood
  tissue uptake at 0.5 h: 5.9 %ID/g
[1]; [3]
  tissue uptake at 1.5 h: 3.2 %ID/g
  tissue uptake at 3 h: 1.3 %ID/g
  tissue uptake at 6 h: 0.9 %ID/g
[1]; [4]
  tissue uptake at 1.5 h: 3.2 %ID/g
  tissue uptake at 3 h: 3.1 %ID/g
  tissue uptake at 6 h: 1 %ID/g
[1]; mouse, contents, 0.5 hours, blocked (lisinopril), read-out: Biodistribution, Contents
  tissue uptake at 0.5 h: 17.9 %ID/g
[1]; mouse, contents, 0.5 hours, normal (not blocked), read-out: Biodistribution, Contents
  tissue uptake at 0.5 h: 21.4 %ID/g
[1]; [5]
  tissue uptake at 1.5 h: 28.5 %ID/g
  tissue uptake at 3 h: 15 %ID/g
  tissue uptake at 6 h: 48.9 %ID/g
[1]; [6]
  tissue uptake at 1.5 h: 22.1 %ID/g
  tissue uptake at 3 h: 21.4 %ID/g
  tissue uptake at 6 h: 65.9 %ID/g
[1]; mouse, fat, 0.5 hours, blocked (lisinopril), read-out: Biodistribution, Fat
  tissue uptake at 0.5 h: 0.6 %ID/g
[1]; mouse, fat, 0.5 hours, normal (not blocked), read-out: Biodistribution, Fat
  tissue uptake at 0.5 h: 0.7 %ID/g
[1]; [7]
  tissue uptake at 1.5 h: 0.5 %ID/g
  tissue uptake at 3 h: 0.2 %ID/g
  tissue uptake at 6 h: 0.1 %ID/g
[1]; [8]
  tissue uptake at 1.5 h: 0.8 %ID/g
  tissue uptake at 3 h: 0.4 %ID/g
  tissue uptake at 6 h: 0.2 %ID/g
[1]; mouse, in vivo
  clearance from small intestine: quite slow clearance
  clearance from the lungs: rapid clearance from the lungs
  uptake in the small intestine: High uptake in the small intestine
[1]; mouse, kidney, 0.5 hours, blocked (lisinopril), read-out: Biodistribution, Kidney
  tissue uptake at 0.5 h: 9.8 %ID/g
[1]; mouse, kidney, 0.5 hours, normal (not blocked), read-out: Biodistribution, Kidney
  tissue uptake at 0.5 h: 7.1 %ID/g
[1]; [9]
  tissue uptake at 1.5 h: 2.4 %ID/g
  tissue uptake at 3 h: 1.4 %ID/g
  tissue uptake at 6 h: 0.5 %ID/g
[1]; [10]
  tissue uptake at 1.5 h: 7.1 %ID/g
  tissue uptake at 3 h: 6.9 %ID/g
  tissue uptake at 6 h: 9.6 %ID/g
[1]; mouse, large intestine, 0.5 hours, blocked (lisinopril), read-out: Biodistribution, lg. Intest.
  tissue uptake at 0.5 h: 1.1 %ID/g
[1]; mouse, large intestine, 0.5 hours, normal (not blocked), read-out: Biodistribution, lg. Intest.
  tissue uptake at 0.5 h: 1.5 %ID/g
[1]; [11]
  tissue uptake at 1.5 h: 1.4 %ID/g
  tissue uptake at 3 h: 13.4 %ID/g
  tissue uptake at 6 h: 14.6 %ID/g
[1]; [12]
  tissue uptake at 1.5 h: 1.1 %ID/g
  tissue uptake at 3 h: 2.6 %ID/g
  tissue uptake at 6 h: 18.6 %ID/g
[1]; mouse, liver, 0.5 hours, blocked (lisinopril), read-out: Biodistribution, Liver
  tissue uptake at 0.5 h: 7.6 %ID/g
[1]; mouse, liver, 0.5 hours, normal (not blocked), read-out: Biodistribution, Liver
  tissue uptake at 0.5 h: 7.2 %ID/g
[1]; [13]
  tissue uptake at 1.5 h: 1.4 %ID/g
  tissue uptake at 3 h: 1.9 %ID/g
  tissue uptake at 6 h: 0.3 %ID/g
[1]; [14]
  tissue uptake at 1.5 h: 4.9 %ID/g
  tissue uptake at 3 h: 3.8 %ID/g
  tissue uptake at 6 h: 0.8 %ID/g
[1]; mouse, lung, 0.5 hours, blocked (lisinopril), read-out: Biodistribution, Lung
  tissue uptake at 0.5 h: 1 %ID/g
[1]; mouse, lung, 0.5 hours, normal (not blocked), read-out: Biodistribution, Lung
  tissue uptake at 0.5 h: 4.8 %ID/g
[1]; [15]
  tissue uptake at 1.5 h: 0.6 %ID/g
  tissue uptake at 3 h: 0.5 %ID/g
  tissue uptake at 6 h: 0.3 %ID/g
[1]; [16]
  tissue uptake at 1.5 h: 1.8 %ID/g
  tissue uptake at 3 h: 1.7 %ID/g
  tissue uptake at 6 h: 0.5 %ID/g
[1]; mouse, muscle, 0.5 hours, blocked (lisinopril), read-out: Biodistribution, Muscle
  tissue uptake at 0.5 h: 1.1 %ID/g
[1]; mouse, muscle, 0.5 hours, normal (not blocked), read-out: Biodistribution, Muscle
  tissue uptake at 0.5 h: 1.1 %ID/g
[1]; [17]
  tissue uptake at 1.5 h: 0.4 %ID/g
  tissue uptake at 3 h: 0.3 %ID/g
  tissue uptake at 6 h: 0.2 %ID/g
[1]; [18]
  tissue uptake at 1.5 h: 0.8 %ID/g
  tissue uptake at 3 h: 0.6 %ID/g
  tissue uptake at 6 h: 0.3 %ID/g
[1]; mouse, small intestine, 0.5 hours, blocked (lisinopril), read-out: Biodistribution, Sm. Intest.
  tissue uptake at 0.5 h: 19.8 %ID/g
[1]; mouse, small intestine, 0.5 hours, normal (not blocked), read-out: Biodistribution, Sm. Intest.
  tissue uptake at 0.5 h: 31.9 %ID/g
[1]; [19]
  tissue uptake at 1.5 h: 21.7 %ID/g
  tissue uptake at 3 h: 14.2 %ID/g
  tissue uptake at 6 h: 1.2 %ID/g
[1]; [20]
  tissue uptake at 1.5 h: 27 %ID/g
  tissue uptake at 3 h: 27 %ID/g
  tissue uptake at 6 h: 20.1 %ID/g
[1]; mouse, stomach, 0.5 hours, blocked (lisinopril), read-out: Biodistribution, Stomach
  tissue uptake at 0.5 h: 24.2 %ID/g
[1]; mouse, stomach, 0.5 hours, normal (not blocked), read-out: Biodistribution, Stomach
  tissue uptake at 0.5 h: 25.1 %ID/g
[1]; [21]
  tissue uptake at 1.5 h: 13.3 %ID/g
  tissue uptake at 3 h: 12.8 %ID/g
  tissue uptake at 6 h: 4.2 %ID/g
[1]; [22]
  tissue uptake at 1.5 h: 28.7 %ID/g
  tissue uptake at 3 h: 14.2 %ID/g
  tissue uptake at 6 h: 5.1 %ID/g
[1]; pre-injection with lisinopril
  blocking of uptake in kidney and small intestine: effectively blocked at all time points
  uptake in all other organs, blocked vs normal: no difference in uptake between the normal and blocked biodistributions
[2]
  organs imaged: clearly show the lungs and kidneys at early time points, as well as in the bladder at later time points
